Values quoted from earlier work in patent publication US7300792B2, “Lux expression in eukaryotic cells” (University of Tennessee Research Foundation, priority 2002, dated 2007).

Tested on: lower eukaryotes
Settings: lower eukaryotes (yeast)

## CCCCCCCCCC=O [n-decylaldehyde]
  Toxicity: toxic to lower eukaryotes
